# According to US10588972B2, “Phthalocyanine probes and uses thereof” (LI-COR, INC., priority 2014, dated 2020):
# Where “and” joins values, the source holds several entries; their conditions need not be identical. Equal entries are not always repeated. Where two headings read alike, the source gives them in different places.
# Key:
# A431 cells [1] = assay: Cytotoxicity and localization of antibody probe versus small protein ligand probe after irradiation (Example 4); format: cell-based
# Protocol: Both probes can bind EGFR and had approximately 2 dye molecule per conjugate molecule. It was assumed that the affinity for the receptor will be different for the antibody (generally pM), compared to the small protein (nM). Although the probe doses were different, the incubation times were the same at only 10 min. After incubation, the probes were rinsed from the cells. FIGS. 7A and 7B illustrates A431 cells that were incubated with IRDye 700DX-panitumumab or IRDye 700DX-EGF, respectively and thereafter irradiated.
# Thus, upon irradiation, the production of singlet oxygen occurred at the cell surface. Typically, the EGF ligand is internalized after binding the EGF receptor.
# A431 cells [2] = assay: Unlabeled versus IRDye 700DX-labeled panitumumab with and without irradiation (Example 5); format: cell-based; conditions: 10 minutes incubation
# Protocol: Although the assumption is that the doses used in the assay described herein are too low to be a contributing factor in the cell death seen with IRDye® 700DX-labeled panitumumab, a small study was conducted to confirm that no therapeutic effect is due to the assay system. The test included the following four treatments: treatment 1 of unlabeled panitumumab and no irradiation (FIG. 11A), treatment 2 of IRDye® 700DX-labeled panitumumab and no irradiation (FIG. 11B), treatment 3 of unlabeled panitumumab and irradiation (FIG. 11C), and treatment 4 of IRDye® 700DX-labeled panitumumab and irradiation (FIG. 11D). The irradiation dose was 24 J/cm^2 with the probe incubation of 10 minutes and a concentration of 0.1 μM.
# A431 cells [3] = format: cell-based; conditions: 32 J/cm^2
# Protocol: A different LED source was tested and evaluated to determine if a second source of LED would yield a similar effect as the standard LED used. A straight forward evaluation was set up with four treatments (treatments A-D). The tests were performed in triplicate in order to examine reproducibility. The test included the following four treatments: treatment A of no probe and irradiation, treatment B of IRdye® 700DX-labeled EGF and no irradiation, treatment C of IRDye® 700DX-labeled EGF and irradiation, and treatment D of IRDye® 700DX-labeled panitumumab and irradiation. The probe dose was about 0.1 μM labeled panitumumab and 0.5 μM 700DX-labeled EGF. Irradiation was for 10 minutes at an irradiation dose of 32 J/cm^2.
# Significant and similar effects for both probes together and in triplicate thus providing clear evidence that IRDye® 700DX-labeled small protein can kill cells similarly to an IRDye 700DX-labeled antibody. Conditions for use of either probe may be unique to the individual probe. […] The fluorescent scale of the 700 nm images was the same for both treated sets of cells (FIGS. 12C-12D). Although the exact concentration of the antibody probe is not known, the signals from the different probes appear similar in level and intensity.
# A431 cells [4] = assay: VB-48 assay: vitality, viability and necrosis of treatments 1-10 (Table 3); format: cell-based
# Protocol: Briefly, A431 cells were labeled with respective probes for specific treatments (listed below); cells were rinsed and evaluated for labeling. The test include the following treatments: […], treatments 3-4 of EGF-IRDye® 700DX at 0.5 μM and radiation, treatments 5-6 of IRDye® 700DX NHSe at 5 μM and radiation, treatments 7-8 of panitumumab-IRDye® 700DX at about 0.1 μM and radiation, treatment 9 of a negative control with no probe and no irradiation, and treatment 10 of RGD-IRDye® 700DX and no irradiation. The probes were incubated for about 10 minutes and with a longer period of about 20 minutes for the RGD probe. The cells were monitored with microscopy and morphology was examination 24 hours post treatment.
# Low binding was expected for the RGD probe due to the low level of integrin receptors on A431 cells. […] By 3 hours post-irradiation all treatments except RGD (Treatment 1) show significant cytotoxicity. Vitality, viability and necrosis assays such as a VB-48 assay and JC-1 assay were performed.
# [5] = test system: serum proteins including albumin (human serum albumin, bovine serum albumin, 5% FBS); assay: Binding of dye to serum proteins, incubation in 1×PBS and 4-12% Bis-Tris gel
# Protocol: In SDS-PAGE and under non-reducing conditions, ovalbumin has a molecular weight of about 40 kDa, 45 kDa, 63 kDa and 72 kDa. Human serum albumin (HSA) has a molecular with ranging from about 66.6 kDa to about 66.4 kDa or lower under non-reducing conditions. HSA can migrate as an approximately 58-67 kDa band in SDS-PAGE under reducing conditions.
# Human serum albumin, bovine serum albumin, 5% FBS and IRDye® 700DX carboxylate were incubated in 1×PBS for 2.5 h at room temperature. Methylene blue was also used as a dye known to bind to albumin and the other serum proteins. The samples were run on a 4-12% Bis-Tris gel. Ovalbumin served as the negative control. The proteins incubated with IRDye® 700DX carboxylate are on the left of the gel and methylene blue samples are on the right (FIG. 4A-B).
# [6] = Production of singlet oxygen, Singlet Oxygen Green Sensor, steady state fluorometer; conditions: for singlet oxygen sensor fluorescence with scavenger sodium azide added: 32 J/cm^2
# Protocol: Dyes and conjugated probes (IRDye 700DX carboxylate (700DX), EGF, RGD, and IgG conjugates) were evaluated for production of singlet oxygen using Singlet Oxygen Green Sensor (Life Technologies) and measured by a steady state fluorometer (ex 504 nm/em 525 nm). Controls (water or DMEM medium) and a positive control of methylene blue (MB) were included.
# Measurements were made every second for 30 sec and averaged. Solution makeup: SOGS (1 μM), dye or probe addition (10 μM), Tris pH 7.5 ([…]) and deuterium oxide (50%). Light exposure=32 J/cm^2.
# [7] = Stability of IRDye 700DX carboxylate (signal intensity) in PBS and in buffers of pH 2.1-8.2; format: physicochemical; conditions: 37° C.
# Protocol: Evaluation of the effect of pH on the stability of the carboxylate form of the dye was performed at room temperature and at 37° C. For comparison purposes a test of the stability at 37° C. while dissolved in 1×PBS was included. Mcllaine's buffer solution with constant ionic strength was used. […] When the dye was dissolved in various buffers with increasing pH (2.1-8.2) a loss in signal intensity initially occurred between pH 4 and 5 with losses progressively increasing down to pH 2.1 at room temperature (FIG. 3A). At 37° C. this loss initially occurred at a slightly higher pH between pH 5-6 with a progression similar to the tests done at room temperature (FIG. 3B).
# [8] = Clearance and biodistribution of IRDye 700DX carboxylate by fluorescence imaging; format: in vivo, nude mice
# Protocol: Experiments were performed to evaluate the clearance of IRDye® 700DX carboxylate in nude mice receiving 2 or 4 nmoles of the compound. This is the non-reactive form of the dye and the in vivo elimination kinetics can be used to determine the biodistribution of the dye and a subsequent dye-labeled conjugate. The results for both doses were very similar (only 4 nmole animal images are presented). Clearance appeared to be renal as noted in the dorsal (FIG. 8A) and ventral whole body views (FIG. 9A). The kidneys are visible throughout the dorsal series (FIG. 8A) and liver negligible in ventral series (FIG. 9A). […] A closer examination of the organs after excision is illustrated in FIG. 10B (2 nmole dose). […] All organs imaged (muscle, heart, lungs, liver, brain, spleen, intestine, and kidneys) were analyzed for signal corrected for area.
# [9] = irradiation 24 J/cm^2, 0.1 μM, 24 hours post-treatment
# [10] = no irradiation, 0.1 μM, 24 hours
# [11] = irradiated (I) 10 minutes, 700DX-EGF 0.5 μM, 700DX-Pan about 0.1 μM
# [12] = irradiated (I) 32 J/cm^2, RGD 0.5 μM, EGF 0.5 μM, NHSe 5 μM, Pan ~0.1 μM
# [13] = 2.5 h incubation, room temperature
molecule,measurement,setting,value
700DX-Pan [reference compound],dead irradiated cells,"A431 cells [1]; 10 min incubation, panitumumab probe about 0.1 μM, EGF probe 0.5 μM, 24 hours post irradiation",62%
same,necrotic cells after irradiation,A431 cells [1]; irradiation 24 J/cm^2 (figure legend),62%
same,induction of cell death (morphology),A431 cells [2]; [9],effectively induced cell death
same,induction of cell death (morphology),A431 cells [2]; [10],No measurable effect
same,effect on cells (morphology),A431 cells [3]; irradiated 10 minutes,severely affected by the irradiating energy and were dying
same,Cells/mL,A431 cells [3]; [11],2.8 × 10^5 Cells/mL and 4.2 × 10^5 Cells/mL and 2.3 × 10^5 Cells/mL
same,VB-48 % necrotic,A431 cells [3]; [11],67% and 87%
same,% Healthy,A431 cells [4]; [12],15.0%
same,% Necrotic,A431 cells [4]; [12],70%
same,Cells/mL,A431 cells [4]; [12],1.2 × 10^5 Cells/mL
same,Est % Viability,A431 cells [4]; [12],30-40%
same,Low % Vitality,A431 cells [4]; [12],15%
same,cytotoxicity by microscopy,"A431 cells [4]; irradiated, up to 3 hours post-irradiation",most effective
unlabeled panitumumab: unlabeled antibody that binds EGFR,induction of cell death (morphology),A431 cells [2]; [9],No measurable effect
same,induction of cell death (morphology),A431 cells [2]; [10],No measurable effect
CN(C)c1ccc2nc3ccc(=[N+](C)C)cc-3sc2c1 [methylene blue],binding to the serum proteins including albumin,[5]; [13],Signal is present
same,increase of singlet oxygen sensor fluorescence,"[6]; dye or probe 10 μM, SOGS 1 μM, light exposure 32 J/cm^2 (690 nm)",Three- to four-fold
same,singlet oxygen sensor fluorescence with scavenger sodium azide added,[6],reduction in fluorescence
"silicate(5-), bis[N— [3-[(hydroxy-.kappa.O)dimethylsilyl]propyl]-3-sulfo-N,N-bis(3-sulfopropyl)-1-propanaminiumato(4-)][6-[[[3-[(29H,31H-phthalocyanin-yl-.kappa.N29, .kappa.N30, .kappa.N31, .kappa.N32)oxy]propoxy]carbonyl]amino]hexanoato(3-)]-, sodium (1:5) [IRDye® 700DX carboxylate]",loss of signal intensity (stability),"[7]; 1×PBS, 1 μM",very little loss of signal intensity
same,pH at which a loss in signal intensity initially occurred,[7]; buffers of increasing pH,5-6 pH
same,binding to the serum proteins including albumin,[5]; 1 h post-incubation,not detected
same,binding to the serum proteins including albumin,[5]; [13],evident
same,primary location of the dye in the kidney (longitudinal slice),[8]; 4 nmole dose,proximal tubules of the renal cortex
same,signal in organs other than the liver and kidney,[8]; 24 hours after injection,little to no signal
same,retention in the liver,"[8]; nude mice, 2 or 4 nmoles",no significant retention in the liver
same,route of clearance,"[8]; nude mice, 2 or 4 nmoles, 5 minutes to 24 hours",renal
same,singlet oxygen sensor fluorescence with scavenger sodium azide added,[6],reduction in fluorescence
